Among the data in patent publication US11014911B2, “CDK2 inhibitors” (Pfizer Inc., priority 2019, dated 2021) are Ki values, retold here.

The target of this test is CDK2/Cyclin E1 full length (Homo sapiens (Human), UniProt P24941). Briefly: CDK2/Cyclin E1 full length mobility shift assay. The class given is biochemical.

As to `COCc1cc(C(=O)Nc2cc([C@H]3CC[C@@H](OC(=O)N[C@@H](C)COC)C3)n[nH]2)n(C)n1` [Example 521, (1R,3S)-3-[5-({[3-(methoxymethyl)-1-methyl-1H-pyrazol-5-yl]carbonyl}amino)-1H-pyrazol-3-yl]cyclopentyl [(2S)-1-methoxypropan-2-yl]carbamate], the inhibitory constant (Ki) is 1.95 nM.
As for `COC[C@H](C)NC(=O)O[C@@H]1CC[C@H](c2cc(NC(=O)Cc3ncc(OC)s3)n[nH]2)C1` [Example 522, (1R,3S)-3-(3-{[(5-methoxy-1,3-thiazol-2-yl)acetyl]amino}-1H-pyrazol-5-yl)cyclopentyl [(2S)-1-methoxypropan-2-yl]carbamate], the figure is 3.05 nM.
Next, `COC[C@H](C)NC(=O)O[C@@H]1CC[C@H](c2cc(NC(=O)Cc3cnc(C(F)(F)F)cn3)n[nH]2)C1` [Example 523, (1R,3S)-3-[3-({[5-(trifluoromethyl)pyrazin-2-yl]acetyl}amino)-1H-pyrazol-5-yl]cyclopentyl [(2S)-1-methoxypropan-2-yl]carbamate]: 2.49 nM; `COc1ccc(CC(=O)Nc2cc([C@@H]3CC[C@H](OC(=O)N[C@H]4CC[C@@H](O)CC4)C3)[nH]n2)cn1` [Example 553, (1S,3R)-3-(3-{[(6-methoxypyridin-3-yl)acetyl]amino}-1H-pyrazol-5-yl)cyclopentyl (cis-4-hydroxycyclohexyl)carbamate]: 0.41 nM; `COc1ccc(CC(=O)Nc2cc([C@@H]3CC[C@H](OC(=O)N[C@H]4CC[C@H](O)CC4)C3)[nH]n2)cn1` [Example 556, (1S,3R)-3-(3-{[(6-methoxypyridin-3-yl)acetyl]amino}-1H-pyrazol-5-yl)cyclopentyl (trans-4-hydroxycyclohexyl)carbamate]: 0.46 nM.
Next, `C[C@]1(O)CC[C@H](NC(=O)O[C@H]2CC[C@@H](c3cc(NC(=O)Cc4ccc(F)cc4)n[nH]3)C2)CC1` [Example 561, (1S,3R)-3-(3-{[(4-fluorophenyl)acetyl]amino}-1H-pyrazol-5-yl)cyclopentyl (trans-4-hydroxy-4-methylcyclohexyl)carbamate]: 1.8 nM; `COc1ccc(CC(=O)Nc2cc([C@H]3CC[C@@H](OC(=O)N[C@H]4CC[C@](C)(O)CC4)C3)[nH]n2)cc1` [Example 567, (1R,3S)-3-(3-{[(4-methoxyphenyl)acetyl]amino}-1H-pyrazol-5-yl)cyclopentyl (trans-4-hydroxy-4-methylcyclohexyl)carbamate]: 1.61 nM.
Regarding `CC(C)(O)CNC(=O)O[C@@H]1CC[C@H](c2cc(NC(=O)Cc3cc(F)cc(F)c3)n[nH]2)C1` [Example 574, (1R,3S)-3-(3-{[(3,5-difluorophenyl)acetyl]amino}-1H-pyrazol-5-yl)cyclopentyl (2-hydroxy-2-methylpropyl)carbamate], the inhibitory constant (Ki) is 4.07 nM.
As to `O=C(Cc1cc(F)cc(F)c1)Nc1cc([C@@H]2CC[C@H](OC(=O)NC[C@H]3C[C@@H](O)C3)C2)[nH]n1` [Example 575, (1S,3R)-3-(3-{[(3,5-difluorophenyl)acetyl]amino}-1H-pyrazol-5-yl)cyclopentyl [(cis-3-hydroxycyclobutyl)methyl] carbamate], the Ki was found to be 2.28 nM.
Next, `O=C(Cc1cc(F)cc(F)c1)Nc1cc([C@@H]2CC[C@H](OC(=O)NC[C@H]3C[C@H](O)C3)C2)[nH]n1` [Example 576, (1S,3R)-3-(3-{[(3,5-difluorophenyl)acetyl]amino}-1H-pyrazol-5-yl)cyclopentyl [(trans-3-hydroxycyclobutyl)methyl] carbamate]: 1.99 nM.
Next, `O=C(Cc1ccc(C(F)(F)F)nc1)Nc1cc([C@@H]2CC[C@H](OC(=O)NC[C@H]3C[C@H](O)C3)C2)[nH]n1` [Example 577, (1S,3R)-3-[3-({[6-(trifluoromethyl)pyridin-3-yl]acetyl}amino)-1H-pyrazol-5-yl]cyclopentyl[(trans-3-hydroxycyclobutyl)methyl]-carbamate]: 3.36 nM; `O=C(Cc1cc(F)cc(F)c1)Nc1cc([C@@H]2CC[C@H](OC(=O)NC[C@@H]3C[C@H]3CO)C2)[nH]n1` [Example 578, (1S,3R)-3-(3-{[(3,5-difluorophenyl)acetyl]amino}-1H-pyrazol-5-yl)cyclopentyl {[(1R,2R)-2-(hydroxymethyl)cyclopropyl]-methyl}carbamate]: 3.64 nM.
As for `O=C(Cc1cc(F)cc(F)c1)Nc1cc([C@@H]2CC[C@H](OC(=O)NC[C@H]3C[C@@H]3CO)C2)[nH]n1` [Example 579, (1S,3R)-3-(3-{[(3,5-difluorophenyl)acetyl]amino}-1H-pyrazol-5-yl)cyclopentyl {[(1S,2S)-2-(hydroxymethyl)cyclopropyl]-methyl}carbamate], the figure is 2.41 nM; as for `O=C(Cc1ccc(C(F)(F)F)nc1)Nc1cc([C@@H]2CC[C@H](OC(=O)NC[C@H]3C[C@@H]3CO)C2)[nH]n1` [Example 580, (1S,3R)-3-[3-({[6-(trifluoromethyl)pyridin-3-yl]acetyl}amino)-1H-pyrazol-5-yl]cyclopentyl {[(1S,2S)-2-(hydroxymethyl)cyclopropyl]-methyl}carbamate], 3.38 nM.
`COc1cc(CC(=O)Nc2cc([C@@H]3CC[C@H](OC(=O)NCC4CCN(C(C)=O)CC4)C3)[nH]n2)ccn1` [Example 581, (1S,3R)-3-(3-{[(2-methoxypyridin-4-yl)acetyl]amino}-1H-pyrazol-5-yl)cyclopentyl[(1-acetylpiperidin-4-yl)methyl]carbamate]: the inhibitory constant (Ki) was found to be 2.62 nM.
As for `CC(=O)N1CCC(CNC(=O)O[C@H]2CC[C@@H](c3cc(NC(=O)Cc4cc(F)cc(F)c4)n[nH]3)C2)CC1` [Example 582, (1S,3R)-3-(3-{[(3,5-difluorophenyl)acetyl]amino}-1H-pyrazol-5-yl)cyclopentyl [(1-acetylpiperidin-4-yl)methyl]carbamate], the figure is 2.23 nM; as for `C[C@H]1CCN1C(=O)O[C@@H]1CC[C@H](c2cc(NC(=O)c3cncn3C)n[nH]2)C1` [Example 585, (1R,3S)-3-(3-{[(1-methyl-1H-imidazol-5-yl)carbonyl]amino}-1H-pyrazol-5-yl)cyclopentyl (2S)-2-methylazetidine-1-carboxylate], 2.57 nM.
As for `C[C@@H]1CCN1C(=O)O[C@@H]1CC[C@H](c2cc(NC(=O)Cc3cnn(C)c3)n[nH]2)C1` [Example 587, (1R,3S)-3-(3-{[(1-methyl-1H-pyrazol-4-yl)acetyl]amino}-1H-pyrazol-5-yl)cyclopentyl (2R)-2-methylazetidine-1-carboxylate], the figure is 2.77 nM; as for `C[C@H]1CCN1C(=O)O[C@@H]1CC[C@H](c2cc(NC(=O)Cc3cnn(C)c3)n[nH]2)C1` [Example 588, (1R,3S)-3-(3-{[(1-methyl-1H-pyrazol-4-yl)acetyl]amino}-1H-pyrazol-5-yl)cyclopentyl (2S)-2-methylazetidine-1-carboxylate], 0.75 nM; as for `Cc1cnc(CC(=O)Nc2cc([C@H]3CC[C@@H](OC(=O)N4CC[C@@H]4C)C3)[nH]n2)cn1` [Example 591, (1R,3S)-3-(3-{[(5-methylpyrazin-2-yl)acetyl]amino}-1H-pyrazol-5-yl)cyclopentyl (2S)-2-methylazetidine-1-carboxylate], 1.67 nM.
As for `COc1cnc(CC(=O)Nc2cc([C@H]3CC[C@@H](OC(=O)N4CC[C@@H]4C)C3)[nH]n2)cn1` [Example 592, (1R,3S)-3-(3-{[(5-methoxypyrazin-2-yl)acetyl]amino}-1H-pyrazol-5-yl)cyclopentyl (2S)-2-methylazetidine-1-carboxylate], the figure is 2.27 nM.
Turning to `COCCn1nccc1C(=O)Nc1cc([C@H]2CC[C@@H](OC(=O)N3CC[C@H]3C)C2)[nH]n1` [Example 593, (1R,3S)-3-[3-({[1-(2-methoxyethyl)-1H-pyrazol-5-yl]carbonyl}amino)-1H-pyrazol-5-yl]cyclopentyl (2R)-2-methylazetidine-1-carboxylate], the Ki was found to be 2.21 nM.
On to `COCc1cc(C(=O)Nc2cc([C@H]3CC[C@@H](OC(=O)N4CC[C@@H]4C)C3)[nH]n2)n(C)n1` [Example 595, (1R,3S)-3-[3-({[3-(methoxymethyl)-1-methyl-1H-pyrazol-5-yl]carbonyl}amino)-1H-pyrazol-5-yl]cyclopentyl (2S)-2-methylazetidine-1-carboxylate], for which the Ki was 1.52 nM.
Take `C[C@H]1CCN1C(=O)O[C@@H]1CC[C@H](c2cc(NC(=O)c3ccnn3CCN(C)C)n[nH]2)C1` [Example 596, (1R,3S)-3-{3-[({1-[2-(dimethylamino)ethyl]-1H-pyrazol-5-yl}carbonyl)amino]-1H-pyrazol-5-yl}cyclopentyl (2S)-2-methylazetidine-1-carboxylate]: the inhibitory constant (Ki) was 1.75 nM.
Take `COc1cnc(CC(=O)Nc2cc([C@H]3CC[C@@H](OC(=O)N4CCC4(C)C)C3)[nH]n2)cn1` [Example 602, (1R,3S)-3-(3-{[(5-methoxypyrazin-2-yl)acetyl]amino}-1H-pyrazol-5-yl)cyclopentyl 2,2-dimethylazetidine-1-carboxylate]: the Ki amounted to 0.3 nM.
Next, `Cc1cc(CC(=O)Nc2cc([C@H]3CC[C@@H](OC(=O)N4[C@H](C)C[C@@H]4C)C3)[nH]n2)on1` [Example 607, (1R,3S)-3-(3-{[(3-methyl-1,2-oxazol-5-yl)acetyl]amino}-1H-pyrazol-5-yl)cyclopentyl (2R,4S)-2,4-dimethylazetidine-1-carboxylate]: 1.9 nM; `Cc1cnc(CC(=O)Nc2cc([C@H]3CC[C@@H](OC(=O)N4[C@@H](C)C[C@@H]4C)C3)[nH]n2)cn1` [Example 608, (1R,3S)-3-(3-{[(5-methylpyrazin-2-y)acetyl]amino}-1H-pyrazol-5-yl)cyclopentyl (2S,4S)-2,4-dimethylazetidine-1-carboxylate]: 1.11 nM; `COc1cc(CC(=O)Nc2cc([C@H]3CC[C@@H](OC(=O)N4[C@H](C)C[C@H]4C)C3)[nH]n2)ccn1` [Example 609, (1R,3S)-3-(3-{[(2-methoxypyridin-4-yl)acetyl]amino}-1H-pyrazol-5-yl)cyclopentyl (2R,4R)-2,4-dimethylazetidine-1-carboxylate]: 4.81 nM.
As for `COc1cnc(CC(=O)Nc2cc([C@H]3CC[C@@H](OC(=O)N4[C@@H](C)C[C@@H]4C)C3)[nH]n2)cn1` [Example 610, (1R,3S)-3-(3-{[(5-methoxypyrazin-2-yl)acetyl]amino}-1H-pyrazol-5-yl)cyclopentyl (2S,4S)-2,4-dimethylazetidine-1-carboxylate], the figure is 1.04 nM.
